Each structure is given as a SMILES string.

Drawing on ChEMBL document CHEMBL3414482, “Structure-activity relationship of pyrrolyl diketo acid derivatives as dual inhibitors of HIV-1 integrase and reverse transcriptase ribonuclease H domain” (J Med Chem, 2015), this text covers IC50 for seven compounds.

The experiment addresses Human immunodeficiency virus type 1 reverse transcriptase (Human immunodeficiency virus 1, UniProt Q72547).
In the case of `O=C(/C=C(\O)C(=O)O)/C=C/c1cc(C(=O)c2ccc(F)cc2)cn1Cc1ccccc1`, the midpoint of inhibition, the IC50, lay at 7.5 µM.

On to `Cn1cc(C(=O)c2ccc(F)cc2)cc1/C=C/C(=O)/C=C(\O)C(=O)O`, for which half-maximal inhibition (IC50) required 20 µM.

Regarding `N/C(=C\C(=O)c1cn(Cc2ccc(F)cc2)cc1-c1ccccc1)C(=O)O` (mixture of isomers), the half-inhibitory concentration (IC50) – broadly, the concentration that inhibits the measured activity by half – was 2 µM.

Turning to `C/C(C(=O)c1cn(Cc2ccc(F)cc2)cc1-c1ccccc1)=C(/O)C(=O)O`, the IC50 stood at 64 µM.

Regarding `CCOC(=O)/C(O)=C/C(=O)/C=C/c1cn(Cc2ccc(F)cc2)cc1-c1ccccc1`, the IC50 amounted to 3 µM.

The compound `CCOC(=O)/C(N)=C/C(=O)c1cn(Cc2ccc(F)cc2)cc1-c1ccccc1` showed an IC50 of 72 µM.

`CCOC(=O)/C(O)=C/C(=O)/C=C/c1cc(C(=O)c2ccc(F)cc2)cn1C` showed an IC50 of 28 µM.
